Assay results taken from patent US4138485A, “Phenylalanine derivatives” (Kyowa Hakko Kogyo Kabushiki Kaisha, priority 1976, dated 1979).

Tests used:
[1] = Acute toxicity in mice; conditions: in vivo, mouse, after one week
Protocol: (§1) (1) Acute toxicity and tonic convulsion in hind paw:
(§2) The acute toxicity and tonic convulsion occured by stimulus by hand touch were determined in the following manner to give the results shown in Table 2.
(a) Acute toxicity in mice:
38 Groups, each consisting of 5 mice (male dd-strain, weight -- 18 to 24 g), were used for the test and control groups. The compounds shown in Table 2 were administered orally or intraperitoneally to the mice. After one week, the survival ratio was measured.

[2] = tested on: hyperlipemia induced by Triton; test: Cholesterol-lowering activity on hyperlipemia induced by Triton in mice; type: in vivo, mice (male dd-strain); conditions: Mus musculus, po, 43 h, read-out: Ratio of the reduction of cholesterol
Protocol: (2) Cholesterol-Lowering activity on hyperlipemia induced by Triton in mice:
38 Groups, each consisting of 9 mice (male dd-strain, weight -- 19 to 21 g), were used for the test and control groups. […] Immediately after the administration and also after 20 hours from the administration of Triton, the mice were orally administered with 100 mg/kg of the compound shown in Table 3. 43 hours after the administration of Triton, the blood samples were collected by decapitation and then the corpuscle was removed by centrifugation. Cholesterol in the serum was determined by Zurkowski's method modified by Shibata (color of the test solution was developed by using sulfoalicyclic acid, acetic acid and sulfuric acid and the optical density of the solution was determined at 620 mμ.

[3] = Acute toxicity in rats; conditions: in vivo; rat, oral administration, after one week; read-out: Acute Toxicity (LD50), C
Protocol: as §1, §2
(b) Acute toxicity in rats:
28 Groups, each consisting of 5 rats (male Wistar strain, weight -- 200 g), were used for the test and control groups. The compounds shown in Table 2 were orally administered to the rats. After one week, the survival ratio was measured.

[4] = tested on: Cholesterol in the serum; test: Cholesterol-lowering activity on normal rats of Wistar strain (serum cholesterol, liver weight); type: in vivo, rats (male Wistar strain); conditions: continuous administration for 4 days, 0.3% in diet
Protocol: (3) Cholesteral-lowering activity on normal rats of Wistar strain:
(i) 22 Groups, each consisting of 5 rats (male Wistar strain, weight -- 150 to 180 g) were used for the test and control groups. After this, the blood samples were collected by decapitation and then the corpuscle was removed by centrifugation. Cholesterol in the serum was determined by Zurkowski's method modified by Shibata and also the liver was excised and weighed. The results are shown in Table 4 wherein the ratio of 100% denotes the amount of chloresterol and the weight of the liver of normal rats fed with powdery diet without the addition of the compound.

[5] = oral administration, read-out: Acute Toxicity (LD50), A
[6] = ip, intraperitoneal administration, read-out: Acute Toxicity (LD50), B

Compound	LD50 at 168 h [1, 5]	inhibition in vivo at 100 mg/kg [2]	LD50 at 168 h [3]	B - Ratio of decrease of liver weight [4]	LD50 at 168 h [1, 6]
CC(=O)Oc1ccc(CSC(=O)N[C@@H](Cc2ccccc2)C(=O)O)cc1 [Compound 36, N-(4-acetoxybenzylthiocarbonyl)-L-phenylalanine]	> 1000 mg/kg	83%	–	–	–
O=C(N[C@@H](Cc1ccccc1)C(=O)O)SCc1ccc(F)cc1 [Compound 33, N-(4-fluorobenzylthiocarbonyl)-L-phenylalanine]	> 1000 mg/kg	79%	–	–	–
COC(=O)[C@H](Cc1ccccc1)NC(=O)SCc1c(C)c(C)c(C)c(C)c1C [Compound 30, N-(2,3,4,5,6-pentamethylbenzylthiocarbonyl)-L-phenylalanine methylester]	> 1000 mg/kg	68%	> 100 mg/kg	11.0%	–
Cc1ccc(CSC(=O)N[C@H](Cc2ccccc2)C(=O)O)cc1 [Compound 34, N-(4-methylbenzylthiocarbonyl)-D-phenylalanine]	> 1000 mg/kg	11%	–	–	–
Cc1ccc(C)c(CSC(=O)N[C@@H](Cc2ccccc2)C(=O)O)c1 [Compound 26, N-(2,5-dimethylbenzylthiocarbonyl)-L-phenylalanine]	> 1000 mg/kg	43%	> 100 mg/kg	0.8%	–
COC(=O)[C@H](Cc1ccccc1)NC(=O)[C@H](Cc1ccccc1)NC(=O)SCc1ccc(Cl)cc1 [Compound 11, N-(4-chlorobenzylthiocarbonyl)-L-phenylalanyl-L-phenylalanine methylester]	> 300 mg/kg	75%	> 100 mg/kg	–	> 100 mg/kg
COC(=O)[C@H](Cc1ccccc1)NC(=O)SCc1cccc(C)c1 [Compound 23, N-(3-methylbenzylthiocarbonyl)-L-phenylalanine methylester]	> 1000 mg/kg	48%	–	–	–
CCNC(=O)[C@H](Cc1ccccc1)NC(=O)SCc1ccc(C)cc1 [Compound 5, N-(4-methylbenzylthiocarbonyl)-L-phenylalanine ethylamide]	> 1000 mg/kg	0%	> 100 mg/kg	–	> 100 mg/kg
COC(=O)[C@H](Cc1ccccc1)NC(=O)SCc1cc(C)ccc1C [Compound 27, N-(2,5-dimethylbenzylthiocarbonyl)-L-phenylalanine methylester]	> 1000 mg/kg	30%	> 100 mg/kg	-0.2%	–
O=C(N[C@@H](Cc1ccccc1)C(=O)O)SCc1ccc([N+](=O)[O-])cc1 [Compound 14, N-(4-nitrobenzylthiocarbonyl)-L-phenylalanine]	> 1000 mg/kg	66%	> 100 mg/kg	48.0%	–
O=C(N[C@@H](Cc1ccccc1)C(=O)O)SCc1cccc2ccccc12 [Compound 31, N-(α-naphthylmethylthiocarbonyl)-L-phenylalanine]	> 1000 mg/kg	74%	> 100 mg/kg	24.4%	–
CCOC(=O)[C@H](Cc1ccccc1)NC(=O)SCc1ccc(C)cc1 [Compound 3, N-(4-methylbenzylthiocarbonyl)-L-phenylalanine ethylester]	> 1000 mg/kg	57%	–	–	–
Cc1ccc(CSC(=O)NC(Cc2ccccc2)C(=O)O)cc1 (racemic) [Compound 35, N-(4-methylbenzylthiocarbonyl)-DL-phenylalanine]	> 1000 mg/kg	22%	–	–	–
COC(=O)[C@H](Cc1ccccc1)NC(=O)[C@H](Cc1ccccc1)NC(=O)SCc1ccc(C)cc1 [Compound 6, N-(4-methylbenzylthiocarbonyl)-L-phenylalanyl-L-phenylalanine methylester]	> 300 mg/kg	39%	> 100 mg/kg	–	> 100 mg/kg
Cc1cccc(C)c1CSC(=O)N[C@@H](Cc1ccccc1)C(=O)O [Compound 24, N-(2,6-dimethylbenzylthiocarbonyl)-L-phenylalanine]	> 1000 mg/kg	34%	> 100 mg/kg	15.0%	–
CC(C)(C)c1ccc(CSC(=O)N[C@@H](Cc2ccccc2)C(=O)O)cc1 [Compound 28, N-(4-tert-butylbenzylthiocarbonyl)-L-phenylalanine]	> 1000 mg/kg	50%	> 100 mg/kg	10.6%	–
O=C(N[C@@H](Cc1ccccc1)C(=O)O)SCc1ccc(Cl)cc1 [Compound 7, N-(4-chlorobenzylthiocarbonyl)-L-phenylalanine]	> 300 mg/kg	94%	> 100 mg/kg	–	> 100 mg/kg
Cc1c(C)c(C)c(CSC(=O)N[C@@H](Cc2ccccc2)C(=O)O)c(C)c1C [Compound 29, N-(2,3,4,5,6-pentamethylbenzylthiocarbonyl)-L-phenylalanine]	> 1000 mg/kg	59%	> 100 mg/kg	–	–
COC(=O)[C@H](Cc1ccccc1)NC(=O)SCc1ccc(O)cc1 [Compound 37, N-(4-hydroxybenzylthiocarbonyl)-L-phenylalanine methylester]	> 1000 mg/kg	74%	–	–	–
COC(=O)[C@H](Cc1ccccc1)NC(=O)SCc1ccc(OC)cc1 [Compound 13, N-(4-methoxybenzylthiocarbonyl)-L-phenylalanine methylester]	> 1000 mg/kg	56%	> 100 mg/kg	38%	> 100 mg/kg
COC(=O)[C@H](Cc1ccccc1)NC(=O)SCc1c(C)cccc1C [Compound 25]	> 1000 mg/kg	37%	> 100 mg/kg	45.3%	–
NC(=O)[C@H](Cc1ccccc1)NC(=O)SCc1ccc(Cl)cc1 [Compound 9, N-(4-chlorobenzylthiocarbonyl)-L-phenylalanine amide]	> 1000 mg/kg	57%	> 100 mg/kg	71%	> 100 mg/kg
Cc1ccc(CSC(=O)N[C@@H](Cc2ccccc2)C(N)=O)cc1 [Compound 4, N-(4-methylbenzylthiocarbonyl)-L-phenylalanine amide]	> 1000 mg/kg	23%	> 100 mg/kg	6.2%	> 100 mg/kg
COC(=O)[C@H](Cc1ccccc1)NC(=O)SCc1cccc2ccccc12 [Compound 32]	> 1000 mg/kg	56%	> 100 mg/kg	12.4%	–
CCNC(=O)[C@H](Cc1ccccc1)NC(=O)SCc1ccc(Cl)cc1 [Compound 10, N-(4-chlorobenzylthiocarbonyl)-L-phenylalanine ethylamide]	> 300 mg/kg	43%	> 100 mg/kg	–	> 100 mg/kg
COC(=O)C(Cc1ccccc1)NC(=O)SCc1ccccc1 (racemic) [Compound 19, N-benzylthiocarbonyl-D,L-phenylalanine methylester]	> 1000 mg/kg	84%	> 100 mg/kg	19.8%	–
COC(=O)[C@H](Cc1ccccc1)NC(=O)SCc1ccc([N+](=O)[O-])cc1 [Compound 15, N-(4-nitrobenzylthiocarbonyl)-L-phenylalanine methylester]	> 1000 mg/kg	29%	> 100 mg/kg	38.9%	–
COC(=O)[C@H](Cc1ccccc1)NC(=O)SCc1ccc(Cl)cc1 [Compound 8, N-(4-chlorobenzylthiocarbonyl)-L-phenylalanine methylester]	> 4000 mg/kg	88%	> 200 mg/kg	–	> 100 mg/kg
